Reference: patent US7223759B2, “Antibacterial 3,5-diaminopiperidine-substituted aromatic and heteroaromatic compounds” (Anadys Pharmaceuticals, Inc., priority 2003, dated 2007)
Read-outs that look alike come from different tables or passages of the source.

Test system: Escherichia coli (ATCC25922) or Staphylococcus aureus (ATCC25923)
Test: Antibacterial MIC, microdilution method in Mueller-Hinton medium
Format: cell-based
Conditions: Escherichia coli, 18 h, read-out: Potency (MIC)
How it was run: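 Read after 18 h incubation at 35° C, MIC is the lowest compound level that blocked growth. Compounds were tested in duplicate over 64–0.5 μg/ml two-fold dilutions using Mueller-Hinton microdilution per NCCLS standard.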

[1] = MIC in E. coli or S. aureus, two-fold serial dilutions 64 to 0.5 μg/ml in duplicate, 18 hours of incubation at 35° C.

| MIC [1] [µg/mL] | SMILES | MIC [µg/mL] |
| --- | --- | --- |
| – | N[C@@H]1C[C@H](N)CN(c2nc(Nc3ccc(S(=O)(=O)Nc4ccc5cn[nH]c5c4)cc3)nc(N3C[C@@H](O)[C@@H](O)C3)n2)C1 [4-[4-((3S,5R)-3,5-Diamino-piperidin-1-yl)-6-((3R,4S)-3,4-dihydroxy-pyrrolidin-1-yl)-[1,3,5]triazin-2-ylamino]-N-(1H-indazol-6-yl)-benzenesulfonamide] | > 64 |
| – | N[C@@H]1C[C@H](N)CN(c2nc(Nc3ccc(S(=O)(=O)Nc4ccc5cn[nH]c5c4)cc3)nc(N3C[C@H](O)C[C@@H](O)C3)n2)C1 [4-[4-((3S,5R)-3,5-Diamino-piperidin-1-yl)-6-((3R,5R)-3,5-dihydroxy-piperidin-1-yl)-[1,3,5]triazin-2-ylamino]-N-(1H-indazol-6-yl)-benzenesulfonamide] | > 64 |
| < 64 | Cl.O=C(Oc1ccccc1)c1ccc(Nc2cc(N3CCCCC3)cc(N3CCCCC3)c2)cc1O [4-[4-((3S,5R)-3,5-Diamino-piperidin-1-yl)-6-((R)-3-hydroxy-piperidin-1-yl)-[1,3,5]triazin-2-ylamino]-2-hydroxy-benzoicacidphhenylester] | – |
| – | N[C@@H]1C[C@H](N)CN(c2nc(Nc3ccc(S(=O)(=O)Nc4ccc5cn[nH]c5c4)cc3)nc(N3CCC[C@@H](O)C3)n2)C1 [4-[4-((3S,5R)-3,5-Diamino-piperidin-1-yl)-6-((R)-3-hydroxy-piperidin-1-yl)-[1,3,5]triazin-2-ylamino]-N-(1H-indazol-6-yl)-benzenesulfonamide] | > 64 |
| > 64 | N[C@@H]1C[C@H](N)CN(c2nc(Nc3ccc(S(=O)(=O)Nc4ccc5cn[nH]c5c4)cc3)nc(NC3CCCNC3)n2)C1 (stereo partly drawn) [4-[4-((3S,5R)-3,5-Diamino-piperidin-1-yl)-6-(piperidin-3-ylamino)-[1,3,5]triazin-2-ylamino]-N-(1H-indazol-6-yl)-benzenesulfonamide] | – |
| > 64 | O=S(=O)(Nc1ccc2cn[nH]c2c1)c1ccc(Nc2nc(N3CCCCC3)nc(N3CCNCC3)n2)cc1 [4-[4-((3S,5R)-3,5-Diamino-piperidin-1-yl)-6-piperazin-1-yl[1,3,5,-triazin-2-ylamino]-N-(1H-indazol-6-yl)-benzenesulfonamide] | – |
| < 64 | Cl.NCCN(CCN)c1nc(Nc2ccc(C(=O)Oc3ccccc3)c([N+](=O)[O-])c2)nc(N2CCCCC2)n1 [4-[4-[Bis-(2-amino-ethyl)-amino]-6-((3R,5S)-3,5-diamino-piperidin-1-yl)-[1,3,5]triazin-2-ylamino]-2-hydroxy-benzoic acidphenyl ester] | – |
| > 64 | Cl.N[C@@H]1C[C@H](N)CN(c2nc(N3C[C@H](N)C[C@H](N)C3)nc(N(c3ccccc3)c3ccc(O)cc3)n2)C1 [4-{[4,6-Bis-((3R,5S)-3,5-diamino-piperidin-1-yl)-[1,3,5]triazin-2-yl]-phenyl-amino}-phenyl] | – |
| – | N[C@@H]1C[C@H](N)CN(c2nc(Nc3ccc(NC(=O)CCCC[C@@H]4SC[C@H]5NC(=O)N[C@@H]45)c(O)c3)nc(N3C[C@H](N)C[C@H](N)C3)n2)C1 [5-((3aR,4S,6aS)-2-Oxo-hexahydro-thieno[3,4-d]imidazol-4-yl)-pentanoicacid {4-[4-((3R,5S)-3,5-diamino-piperidin-1-yl)-6-((3S,5R)-3,5-diamino-piperidin-1-yl)-[1,3,5]triazin-2-ylamino]-2-hydroxy-phenyl}-amide] | > 64 |
| > 64 | Cl.O=C(CCCCC1SCC2NC(=O)NC21)Nc1ccc(Nc2nc(N3CCCCC3)nc(N3CCCCC3)n2)cc1O [5-((S)-2-Oxo-hexahydro-thieno[3,4-d]imidazol-2-yl)-penanoicacid {4-[4-((3S,5S)-3-amino-5-azido-piperidin-1-yl)-6-((3S,5R)-3,5-diamino-piperidin-1-yl)-[1,3,5]triazin-2-ylamino]-2-hydroxy-phenyl}-amide] | – |
| – | N[C@@H]1C[C@H](N)CN(c2nc(N3C[C@H](N)C[C@H](N)C3)nc(-n3ccc4cc(Br)ccc43)n2)C1 [5-Bromo-1-(4,6-Bis-((3R,5S)-3,5-diamino-piperidin-1-yl)-[1,3,5]triazain-2-yl)-1H-indole] | < 64 |
| > 64 | Cl.Nc1nc(Nc2ccc(Cl)c(Cl)c2)nc(C2C[C@@H](N)C[C@@H](N)C2)n1 (stereo partly drawn) [6-((3S,5R)-3,5-Diamino-piperidin-1-yl)-N-(3,4-dichlorro-phenyl)-[1,3,5]triazine-2,4-diamine] | – |
| – | Cc1cc(=O)oc2cc(Nc3nc(NCCN)nc(N4C[C@H](N)C[C@H](N)C4)n3)ccc12 [7-[4-(2-Amino-ethylamino)-6-((3R,5S)-3,5-diamino-piperidin-1-yl)-[1,3,5]triazin-2-ylamino]-4-methyl-chromen-2-one] | > 64 |
| > 64 | Cc1cc(=O)oc2cc(Nc3nc(N4C[C@H](N)C[C@H](N)C4)nc(N4CC[C@H](O)[C@@H]4CN)n3)ccc12 [7-[4-((2S,3S)-2-Aminomethyl-3-hydroxy-pyrrolidin-1-yl)-6-((3R,5S)-3,5-diamino-piperidin-1-yl)-[1,3,5]triazin-2-ylamino]-4-methyl-chromen-2-one] | – |
| – | Cc1cc(=O)oc2cc(Nc3nc(N4C[C@H](N)C[C@H](N)C4)nc(N4C[C@H](O)C[C@H]4CN)n3)ccc12 [7-[4-((2S,4R)-2-Aminomethyl-4-hydroxy-pyrrolidin-1-yl)-6-((3R,5S)-3,5-diamino-piperidin-1-yl)-[1,3,5]triazin-2-ylamino]-4-methyl-chromen-2-one] | > 64 |
| – | Cc1cc(=O)oc2cc(Nc3nc(N4C[C@H](N)C[C@H](N)C4)nc(N4CC[C@H](O)[C@H](CN)C4)n3)ccc12 [7-[4-((3R,4S)-3-Aminomethyl-4-hydroxy-piperidin-1-yl)-6-((3R,5S)-3,5-diamino-piperidin-1-yl)-[1,3,5]triazin-2-ylamino]-4-methyl-chromen-2-one] | > 64 |
| > 64 | COc1nc(Nc2ccc3c(C)cc(=O)oc3c2)nc(N2CCCCC2)n1.Cl [7-[4-((3R,5S)-3,5-DSiamino-piperidin-1-yl)-6-methoxy-[1,3,5]triazin-2-ylamino]-4-methyl-chromen-2-one] | – |
| – | Cc1cc(=O)oc2cc(Nc3nc(N4C[C@H](N)C[C@H](N)C4)nc(N4C[C@H](O)C[C@@H](O)C4)n3)ccc12 [7-[4-((3R,5S)-3,5-Diamino-piperidin-1-yl)-6-((3R,5R)-3,5-dihydroxy-piperidin-1-yl)-[1,3,5]triazin-2-ylamino]-4-methyl-chromen-2-one] | > 64 |
| < 64 | Cc1cc(=O)oc2cc(Nc3nc(N4C[C@H](N)C[C@H](N)C4)nc(N4CCC[C@@H](O)C4)n3)ccc12 [7-[4-((3R,5S)-3,5-Diamino-piperidin-1-yl)-6-((R)-3-hydroxy-piperidin-1-yl)-[1,3,5]triazin-2-ylamino]-4-methyl-chromen-2-one] | – |
| – | Cc1cc(=O)oc2cc(Nc3nc(N4C[C@H](N)C[C@H](N)C4)nc(N4C[C@@H](N)[C@@H](N)C4)n3)ccc12 [7-[4-((3R,5S)-3,5-diamino-piperidin-1-yl)-6-((3R,4S)-3,4-diamino-pyrrolidin-1-yl)-[1,3,5]triazin-2-ylamino]-4-methyl-chromen-2-one] | > 64 |
| > 64 | Cc1cc(=O)oc2cc(Nc3nc(N4CCCCC4)nc(N4CCCC4)n3)ccc12.Cl [7-[4-((3R,5S)-33,5-Diamino-piperidin-1-yl)-6-((3R,4S)-3,4-dihydroxy-pyrrolidin-1-yl)-[1,3,5]triazin-2-ylamino]-4-methyl-chromen-2-one] | – |
